Assay results: patent US9428542B2, “Lupane triterpenoid derivatives and pharmaceutical use thereof” (priority 2012, dated 2016)
pIC50: −log10 of the molar value.

Experiments:
HIV-1IIIB = assay: HIV-1 full replication assay (HIV-1IIIB-infected MT-2 cells, supernatant read out on TZM-bl cells, β-Gal); format: cell-based; settings: inhibiting HIV-1IIIB replication in MT-2 cells, 3 days; for pIC50: Human immunodeficiency virus 1, MT2, 72 h, read-out: IC50 (PM)
Protocol: The antiviral activity of the compounds of the present invention was determined in a HIV-1 full replication assay.
In this assay, MT-2 cells that are infected with HIV-1IIIB were co-cultured with different concentration of the tested compounds for 3 days and then supernatant is transferred into new 384-well plates containing TZM-bl cells (also called JC53-bl). TZM-bl cells that could be infected by various kinds of HIV-1 strains stably express a great amount of HIV-1 receptor, co-receptor CD4 molecular, and co-receptor CXCR4 and CCR5. TZM-bl cells harbor LTR-luciferase and β-gal two report genes. The expression of luciferase and β-gal reporter directed by HIV-1 LTR can be activated by Tat protein generated after HIV infection, and the quantity of expression is proportional to the quantity of HIV-1. Compounds that interfere with virus replication in MT-2 cells, maturation of the virus, or post-entry steps in the HIV lifecycle decrease the luciferase signal or β-gal signal. In this experiment, BVM (Bevirimat, PA-457) is used as a positive control drug.
Method for Inhibiting HIV-1 Replication Assay:
The MT-2 cells are infected at a Multiciplicity (MOI) of 0.01 TCID50, and then the MT-2 cells suspension was diluted to a needed concentration. 90 μl of the MT-2 cells suspension from above was added into 384-well plates containing 10 μl of the tested compounds.
Compounds were dissolved in DMSO and tested as 11 points 3-fold serial dilutions. After addition of cells to compound plates, plates were placed to humidified 5% CO2 37 incubator for 3 days. 10 μl of cells culture supernatant from the incubated plates was transferred into new black 384-well plates.
Adjusted the TZMb1 cells concentration and 40 μl of TZMb1 cells was added into each well in the black 384-well plates. After addition of the TZMb1 cells to the black plates, black plates were placed to humidified 5% CO2 37 incubator for 24 h, then β-Gal activity was measured.
The anti viral activity %=(measured number-lowest mean number)/(highest mean number-lowest mean number)×100. The IC50 values were calculated by Median Equation and the IC curve was generated by Graphpad Prism V 5.03.
(§1) TC50 is referred to the toxicity in MT-2 cells by the compounds tested at 50% concentration; IC50 is referred to the inhibiting HIV-1IIIB replication in MT-2 cells by the compounds tested at 50% concentration; Therapeutic Index (TI)=TC50/IC50.

MT-2 cells = assay: Compounds' cytotoxicity assay in MT-2 cells (CellTiter-Glo); format: cell-based; set-up: unit not given here; settings: toxicity in MT-2 cells, 3 days
Protocol: 3. Method for Compounds' Cytotoxicity Assay:
The MT-2 cells are diluted to a needed concentration. 90 μl of the MT-2 cells suspension was added into 384-well plates containing 10 μl of the tested compounds. Compounds were dissolved in DMSO and tested as 11 points 3-fold serial dilutions. After addition of cells to compound plates, plates were placed to humidified 5% CO2 37 incubator for 3 days. The Luciferase activity was measured by CellTiter-Glo® Luminescent Cell Viability Assay kit (Promega Corp., WI, USA).
as §1

| SMILES | pIC50 (HIV-1IIIB) | TC50 (PM) (MT-2 cells) | IC50 (PM) (HIV-1IIIB) [nM] |
| --- | --- | --- | --- |
| CC(C)C1=C2[C@H]3CC[C@@H]4[C@@]5(C)CC[C@H](OC(=O)CC(C)(C)C(=O)O)C(C)(C)[C@@H]5CC[C@@]4(C)[C@]3(C)CC[C@@]2(c2nnc(-c3ccc(Cl)cc3)n2CCN(C)C)CC1=O [Compound 116-3] | 9.26 | 33 |  |
| CC(C)C1=C2[C@H]3CC[C@@H]4[C@@]5(C)CC[C@H](OC(=O)CC(C)(C)C(=O)O)C(C)(C)[C@@H]5CC[C@@]4(C)[C@]3(C)CC[C@@]2(Cc2nnc(-c3ccc(Cl)cc3F)o2)CC1=O [Compound 22-13] | 8.77 | 35 |  |
| CC(C)C1=C2[C@H]3CC[C@@H]4[C@@]5(C)CC[C@H](OC(=O)CC(C)(C)C(=O)O)C(C)(C)[C@@H]5CC[C@@]4(C)[C@]3(C)CC[C@@]2(c2cc(=O)n(-c3ccc(Cl)cc3)n2CCN)CC1=O [Compound 155-1] | 8.80 | 78 |  |
| CC(C)C1=C2[C@H]3CC[C@@H]4[C@@]5(C)CC[C@H](OC(=O)CC(C)(C)C(=O)O)C(C)(C)[C@@H]5CC[C@@]4(C)[C@]3(C)CC[C@@]2(c2cc(=O)n(CC(=O)O)n2C)CC1=O [Compound 91-5] |  | 160 | 2110 |
| CC(C)C1=C2[C@H]3CC[C@@H]4[C@@]5(C)CC[C@H](OC(=O)CC(C)(C)C(=O)O)C(C)(C)[C@@H]5CC[C@@]4(C)[C@]3(C)CC[C@@]2(Cc2nc(-c3ccc(Cl)cc3)no2)CC1=O [Compound 108-2] | 6.80 | 26 |  |
| CC(C)C1=C2[C@H]3CC[C@@H]4[C@@]5(C)CC[C@H](OC(=O)CC(C)(C)C(=O)O)C(C)(C)[C@@H]5CC[C@@]4(C)[C@]3(C)CC[C@@]2(Nc2nnc(-c3ccc(Cl)cc3)o2)CC1=O [Compound 141-1] | 8.26 | 26 |  |
| CC(C)C1=C2[C@H]3CC[C@@H]4[C@@]5(C)CC[C@H](OC(=O)CC(C)(C)C(=O)O)C(C)(C)[C@@H]5CC[C@@]4(C)[C@]3(C)CC[C@@]2(Cc2nnc(-c3ccc(Cl)cc3)n2CCN(C)C)CC1=O [Compound 116-1] | ≥ 9.77 | 35 |  |
| CC(C)C1=C2[C@H]3CC[C@@H]4[C@@]5(C)CC[C@H](OC(=O)CC(C)(C)C(=O)O)C(C)(C)[C@@H]5CC[C@@]4(C)[C@]3(C)CC[C@@]2(c2cc(=O)n(-c3ccc(Cl)cn3)n2C)CC1=O [Compound 98-7] | ≥ 9.77 | 200 |  |
| CC(C)C1=C2[C@H]3CC[C@@H]4[C@@]5(C)CC[C@H](OC(=O)CC(C)(C)C(=O)O)C(C)(C)[C@@H]5CC[C@@]4(C)[C@]3(C)CC[C@@]2(c2nnc(N(CCN(C)C)c3ccc(Cl)cc3)o2)CC1=O [Compound 133-2] | ≥ 9.77 | 47 |  |
| CC(C)C1=C2[C@H]3CC[C@@H]4[C@@]5(C)CC[C@H](OC(=O)CC(C)(C)C(=O)O)C(C)(C)[C@@H]5CC[C@@]4(C)[C@]3(C)CC[C@@]2([C@@H](O)c2nnc(-c3ccc(Cl)cn3)o2)CC1=O [Compound 127-3] | 9.22 | 33 |  |
| CC(C)C1=C2[C@H]3CC[C@@H]4[C@@]5(C)CC[C@H](OC(=O)CC(C)(C)C(=O)O)C(C)(C)[C@@H]5CC[C@@]4(C)[C@]3(C)CC[C@@]2(c2nnc(-c3ccc(C(F)(F)F)cn3)o2)CC1=O [Compound 27-11] | 7.60 | 23 |  |
